Results as given in US20150045387A1, “Bi-Aromatic And Tri-Aromatic Compounds As NADPH Oxidase 2 (Nox2) Inhibitors” (The University of Surrey, priority 2011, published 2015).

Assays:
[1] = tested on: human liver hepatocyte cells (HepG2 cells); assay: MTT assay for cytotoxicity, HepG2; type: cell-based; settings: HepG2, LMH001 5 and 10 μM, 24 h
Description: FIG. 8 is a graph showing no cytotoxicity of LMH001 on living mouse microvascular endothelial cells (SVEC4-10 cells) and human liver hepatocyte cells (HepG2 cells), assessed by means of an MTT assay. Cells were cultured with LMH001 (5 and 10 μM) for 24 h. MTT is a yellow tetrazolium reagent which can be converted by living cells to insoluble blue formazan crystal in the medium. The insoluble blue formazan crystals were then dissolved in DMSO and measured for absorbance at 570 nm by a plate reader. Higher absorbance corresponds to more living cells. Results are presented as mean±SD (n=3).
HepG2 is a human hepatocytic cell line (ATCC No. HB-8065) that was originally derived from liver tissue with a well differentiated hepatocellular carcinoma. HepG2 cells have been proven to be a suitable in vitro model system for the study of human hepatocytes, and the study of liver metabolism and toxicity. HepG2 cells were grown in DMEM, containing 10% (v/v) heat inactivated foetal calf serum, 100 U/mL penicillin and […] streptomycin, in a humidified atmosphere at 37° C. with 5% CO2.
The potential cytotoxicity of LMH001 on cultured endothelial cells (SVEC4-10) and liver cells (HepG2) was assessed using the MIT assay as described previously (16). […] Absorbance was measured at 570 nm in an ELISA plate reader and the mean of 3 blank readings was subtracted from each corrected value.

[2] = tested on: bone marrow hematopoietic stem cells; assay: in vivo test of LMH001 on bone marrow hematopoietic stem cell proliferation (MTS assay); settings: 2.2 mg/kg/day intra-peritoneal for two weeks, compared to vehicle injected controls, n=8 mice/per group
Description: FIG. 3 is a graph showing the effect of LMH001 (2 week, IP injection) on bone marrow hematopoietic stem cell proliferation in mice. Wild-type mice (C57BL6/J) at 5 months of age were injected intra-peritoneal with LMH001 at 2.2 mg/kg/day for two weeks. Bone marrow hematopoietic stem cells were isolated and test for cell proliferation by a MTS assay kit (Promega).
On the day of experiment, primary hematopoietic bone marrow cells were obtained from wild-type male C57BL/6 mice as described previously (11). Briefly, 12-16 week old mice were sacrificed by cervical dislocation and their hind legs dissected and carefully cleaned from adherent tissues. Next, the ends of each bone were removed to expose the marrow and this was collected by flushing the femurs and tibias using a 25 gauge needle loaded with Dulbecco's PBS. […]
The ex vivo proliferative capabilities of isolated BMSC or cultured cells were analyzed using the MTS proliferation assay. […] After 24 hours in culture medium containing LMH001 (0-10 μM), proliferation was assessed using the MTS (CellTiter 96 AQ; Promega, Madison, USA) assay according to the manufacturer's protocol. The absorbance at 490 nm was read using an ELISA plate reader (Perkin elmer), and the proliferation index calculated relative to the controls. The mean of 3 blank readings was subtracted from each corrected value. […]

[3] = tested on: human lung alveolar epithelial cancer cells (A549 cells); assay: EGF-induced cell proliferation of A549 cells (cell counting); type: cell-based; settings: LMH001 5 μM, 24 h
Description: A549 cells were seeded at equal number the day before experiments and then stimulated with or without […] (EGF, 10 ng/ml) for 24 h in the presence or absence of LMH001 (5 μM). Cells were then trypsinized and counted. Cell homogenates were used for measuring O2.^− production by lucigenin-chemiluminescence in the presence of NADPH (100 μM).
A549 is a human lung adenocarcinoma epithelial cell line. A549 cells were grown in DMEM, containing 10% (v/v) heat inactivated foetal calf serum, 100 U/mL penicillin and […] streptomycin, in a humidified atmosphere at 37° C. with 5% CO2.

`O=C(OCc1cccc(O)c1O)c1ccc(O)c(CO)c1` [LMH001, (2,3,-dihydroxyphenyl)methyl 4-hydroxy-3-(hydroxymethyl)benzoate] was tested. Which “cytotoxicity, MTT absorbance at 570 nm” value [1] did it give?
The value was “no significant difference”.

And the “toxic effect on bone marrow hematopoietic stem cell proliferation” value [2]?
The value was “no toxic effect”.

And the “EGF-induced A549 cell proliferation” value ([3]; EGF 10 ng/ml, cells counted)?
Its value is “inhibited completely”.

What about the “A549 cell proliferation, LMH001 alone” value ([3]; no EGF, compared to medium only) of the same molecule?
The value was “no significant effect”.
